Assays:
Type in all cases: cell-based
MCF7 cells = test: Real time RT-PCR of miRNAs in hormone-treated MCF7 cells; details: MCF7, estradiol and ICI
Method: Hormone Treatments. MCF7 cells were grown in phenol red-free media containing charcoal stripped serum for 24 hours prior to hormone treatments. The cells were treated with ethanol, 10 nM estradiol or a combination of 10 nM estradiol and 1 mM ICI 182,780 (ICI, Tocris Bioscience) for 6 h, 24 h or 48 h, as indicated, before harvesting RNA using Trizol (Invitrogen) as per the manufacturer's instructions.
Real Time RT-PCR. Poly A tailing and reverse transcription was performed using the NCode miRNA qRT-PCR kit (Invitrogen) as per manufacturer's instructions. SYBR green real time RT-PCR was performed using the Universal Forward Primer (Invitrogen) and miRNA specific primers. The specific primers used were: miR-193b 5′-[…]-3′ (SEQ ID NO: 10); miR-19b 5′-[…]-3′ (SEQ ID NO: 11); miR-20a 5′-[…]-3′ (SEQ ID NO: 12); miR-106a 5′-[…]-3′ (SEQ ID NO: 13); and miR-92b* 5′-[…]-3′ (SEQ ID NO: 14). Reported values are the means and standard errors of 3 biological replicates.
For miR-22, miR-221 and miR-7, taqman real time PCR was performed. Prior to generating cDNA, mRNA was treated with DNase1 (Invitrogen) for 15 min at room temperature. RNA was reverse transcribed into cDNA in a reaction containing reaction buffer, 10 mM DTT, 1 mM dNTPs, RNAse inhibitor (Promega), random hexamers (250 ng) and 200 U of MMUV-RT (ABI). The reaction proceeded at 25° C. for 10 min, then at 37° C. for 1 h. For normalization, real time RT-PCR was performed on the cDNA using ribosomal RNA primers and probe (ABI). TaqMan mRNA Reverse Transcription kit was used to generate cDNA for real time RT-PCR reaction in conjunction with a miR-22, miR-221 or miR-7 specific primers and probe (ABI). Reported values are the means and standard errors of three biological replicates.
The relative mRNA or miRNA levels were calculated using the comparative Ct method (ΔΔCt). Briefly, the Ct (cycle threshold) values for the rRNA were subtracted from Ct values of the target gene to achieve the ΔCt value. The 2^−ΔCt was calculated for each sample and then each of the values was then divided by a control sample to achieve the relative miRNA levels (ΔΔCt).

FASN = test: Immunoblot of FASN in triple-negative (BT549) cells after miR-193b mimic transfection; details: TN cells (BT549), 50 nM mimic, 72 h
Method: (§1) Transfections. BT549 or MDA-MB-231 cells were plated one day prior to transfection. Lipofectamine 2000 (Invitrogen) was incubated with the miRNA mimics for miR-22, miR-221, miR-193b or miR-7 (Ambion) or scrambled negative control (Ambion) at a concentration of 50 nM incubated in serum free media for 20 minutes prior to addition to the cells. Cells were incubated with the transfection mix at 37° C. for 4 h before replacement of FBS to 5%. Protein was harvested 72 h post-transfection using RIPA lysis buffer (1% NP40, 0.5% NaDeoxycholate, 0.1% SDS, 50 mM Tris, 150 mM NaCl, 5 mM EDTA) containing protease inhibitors.
(§2) Immunoblotting. Cell lysates (50 μg) in SDS sample buffer were denatured and separated on 8% SDS PAGE gels and transferred to PVDF membranes. The membranes were blocked in 5% milk in TBS-T, and then probed overnight at 4° C. […] After incubation with appropriate HRP-conjugated secondary antibody, results were detected using Western Lightning Chemiluminescence Reagent Plus (Perkin Elmer).

[1] = test system: BT549 (triple negative) cells; test: Apoptosis (PARP cleavage immunoblot) in triple-negative (BT549) cells; details: TN cells (BT549), 50 nM mimic, 72 h
Method: as §1, §2

[2] = test system: MCF10A (normal immortalized) cells; test: Apoptosis in MCF10A cells after miR-193b transfection
ESR1 3′UTR = test: Luciferase reporter assay, ESR1 3′UTR region ESR1-1, in MCF7 cells; details: ESR1-1 reporter, 50 nM each mimic, versus scrambled negative control
Text: Luciferase Assays. A 360 bp fragment of the 3′ untranslated region of ESR1 containing the putative binding sites for miR-203, miR-221 and miR-22 was amplified by PCR from HeLa genomic DNA (NEB) using the following primers: ESR1-1 F 5′-[…]-3′ (SEQ ID NO: 6) and ESR1-1 R 5′-[…]-3′ (SEQ ID NO: 7). A 680 bp fragment containing the putative binding sites for miR-130/301, miR-148/152, miR-19 and miR-26 was amplified using the following primers: ESR1-2 F 5′-[…]-3′ (SEQ ID NO: 8) and ESR1-2 R 5′-[…]-3′ (SEQ ID NO: 9). MCF7 cells (20,000 cells/well) in a 96-well plate were transfected with the 100 nM of the negative control, 50 nM each of the miR-22, miR-221 or both as described above. After 24 h, the firefly reporter plasmid (0.196 μg) and a renilla luciferase normalization plasmid (0.004 μg/pRL-SV40, Promega) were transfected in using Lipofectamine 2000. Cells were collected 48 hours later for assay using the Dual Luciferase Reporter assay system (Promega).

Q: C[C@]12CC[C@@H]3c4ccc(O)cc4C[C@@H](CCCCCCCCC[S+]([O-])CCCC(F)(F)C(F)(F)F)[C@H]3[C@@H]1CC[C@@H]2O (stereo partly drawn) [ICI, ICI 182,780] was tested. Which “estradiol effect on miR-92b*” value (MCF7 cells; 24 h) did it give?
A: reversed

Q: And the “estradiol effect on miR-19b” value (MCF7 cells; 48 h)?
A: abrogated

Q: And the “estradiol effect on miR-20a” value (MCF7 cells; 48 h)?
A: abrogated

Q: What about the “estradiol effect on miR-106a” value (MCF7 cells; 48 h) of the same compound?
A: abrogated

Q: For “miR-193b mimic: miRNA mimic for miR-193b (Ambion); miR-193b is SEQ ID NO:1 aacuggcccucaaagucccgcu (AACUGGCCCUCAAAGUCCCGCU; mimic duplex, complementary strand not listed, further chemistry not given here)”, which FASN protein (FASN) is on record?
A: almost complete repression

Q: What about the PARP cleavage [1] of the same compound?
A: complete PARP cleavage

Q: What about the “apoptosis, as seen by the appearance of cleaved PARP” value [1] of the same compound?
A: increase in apoptosis

Q: And the apoptosis [2]?
A: no apoptosis

Q: How did the “decrease in luciferase activity” value (ESR1 3′UTR) turn out when “miR-221 mimic: miRNA mimic for miR-221 (Ambion); hsa-miR-221 sequence agcuacauugucugcuggguuuc (AGCUACAUUGUCUGCUGGGUUUC; chemistry not given here)” was run?
A: 13.7%
